Data taken from patent publication US11370784B2 (MISSION THERAPEUTICS LIMITED, priority 2016, dated 2022).
pIC50: −log10 of the molar value.

Biological target: USP30 (Homo sapiens (Human), UniProt Q70CQ3)
Test: USP30 biochemical IC50 assay
Conditions: fluorescence polarisation, TAMRA labelled peptide linked to ubiquitin as substrate; enzyme and compound incubated 30 min at room temp; read-out: IC50 range
Protocol: Reactions were performed in duplicate in black 384 well plates (small volume, Greiner 784076) in a final reaction volume of 21 μl. Either 1 μl of 50% DMSO or diluted compound was added to the plate. USP30 was diluted in reaction buffer (40 mM Tris, pH 7.5, 0.005% Tween 20, 0.5 mg/ml BSA, 5 mM beta-mercaptoethanol) to the equivalent of 0.05 μl/well and 10 μl of diluted USP30 was added to the compound. Enzyme and compound were incubated for 30 min at room temp. Reactions were initiated by the addition of 50 nM of TAMRA labelled peptide linked to ubiquitin via an iso-peptide bond as fluorescence polarisation substrate. Reactions were read immediately after addition of substrate and following a 2 h incubation at room temperature. Readings were performed on a Pherastar Plus (BMG Labtech). λ Excitation 540 nm; λ Emission 590 nm.

Chain of USP30 (Q70CQ3 57-517): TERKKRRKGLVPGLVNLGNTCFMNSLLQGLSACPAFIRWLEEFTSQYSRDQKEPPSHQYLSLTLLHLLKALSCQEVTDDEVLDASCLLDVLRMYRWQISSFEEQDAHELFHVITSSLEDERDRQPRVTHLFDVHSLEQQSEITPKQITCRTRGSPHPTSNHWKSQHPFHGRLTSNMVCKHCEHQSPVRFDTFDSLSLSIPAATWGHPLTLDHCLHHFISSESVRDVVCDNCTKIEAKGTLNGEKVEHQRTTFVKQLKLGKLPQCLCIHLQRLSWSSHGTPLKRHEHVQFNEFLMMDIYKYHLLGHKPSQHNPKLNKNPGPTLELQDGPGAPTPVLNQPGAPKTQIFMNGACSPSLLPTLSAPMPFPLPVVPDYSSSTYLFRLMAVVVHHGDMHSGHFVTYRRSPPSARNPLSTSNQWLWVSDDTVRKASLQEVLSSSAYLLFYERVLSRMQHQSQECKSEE

Compound | pIC50
N#Cc1ccc2cnc(NC(=O)[C@H]3CN(C#N)CCO3)cc2c1 [Example 65, (R)-4-Cyano-N-(6-cyanoisoquinolin-3-yl)morpholine-2-carboxamide] | 5.00 to 6.00
N#CN1CCC[C@](F)(C(=O)Nc2cc(-c3cccc(Cl)c3)on2)C1 [Example 74, (R)—N-(5-(3-Chlorophenyl)isoxazol-3-yl)-1-cyano-3-fluoropiperidine-3-carboxamide] | > 7.00
COc1cccc(-c2cc(NC(=O)[C@H]3CN(C#N)CCO3)ncn2)c1 [Example 22, (R)-4-Cyano-N-(6-(3-methoxy-phenyl)pyrimidin-4-yl)morpholine-2-carboxamide] | 5.00 to 6.00
N#CN1CCOC(C(=O)Nc2cc(-c3ccccc3)[nH]n2)C1 (stereo not shown) [Example 11, 4-Cyano-N-(5-phenyl-1H-pyrazol-3-yl)morpholine-2-carboxamide] | 5.00 to 6.00
N#CN1CCOC(C(=O)Nc2cc(-c3cccc(C(F)(F)F)c3)no2)C1 (racemic) [Example 19, 4-Cyano-N-(3-(3-(trifluoro-methyl)phenyl)isoxazol-5-yl)morpholine-2-carboxamide] | 6.00 to 7.00
N#CN1CCC[C@](F)(C(=O)Nc2ccc(-c3nccc4cn[nH]c34)cn2)C1 [Example 89, (R)—N-(5-(1H-Pyrazolo[3,4-c]pyridin-7-yl)pyridin-2-yl)-1-cyano-3-fluoropiperidine-3-carboxamide] | > 7.00
N#CN1CCO[C@@H](C(=O)Nc2cc(-c3ccccc3)ccn2)C1 [Example 1, (R)-4-cyano-N-(4-phenylpyridin-2-yl)morpholine-2-carboxamide] | 6.00 to 7.00
N#Cc1ccnc(-c2ccnc(NC(=O)C3CN(C#N)CCO3)c2)c1 (stereo not shown) [Example 14, 4-Cyano-N-(4-cyano-[2,4′-bipyridin]-2′-yl)morpholine-2-carboxamide] | 5.00 to 6.00
N#CN1CCO[C@@H](C(=O)Nc2cc(-c3cccc(C(N)=O)c3)ncn2)C1 [Example 27, (R)-N-(6-(3-Carbamoylphenyl)-pyrimidin-4-yl)-4-cyanomorpholine-2-carboxamide] | 5.00 to 6.00
N#CN1CCOC(C(=O)Nc2ccc(-c3ccccc3)cc2)C1 (stereo not shown) [Example 9, N-([1,1′-Biphenyl]-4-yl)-4-ycanomorpholine-2-carboxamide] | 5.00 to 6.00
N#CN1CCO[C@@H](C(=O)Nc2cc(-c3cccc(Cl)c3)ncn2)C1 [Example 21, (R)-N-(6-(3-Chlorophenyl)-pyrimidin-4-yl)-4-cyanomorpholine-2-carboxamide] | 6.00 to 7.00
N#CN1CCCC(F)(C(=O)Nc2ccc(-c3ccn[nH]3)cn2)C1 (racemic) [Example 49, N-(5-(1H-Pyrazol-5-yl)pyridin-2-yl)-1-cyano-3-fluoropiperidine-3-carboxamide] | 6.00 to 7.00
N#CN1CCO[C@@H](C(=O)Nc2cc(-c3cccc(Cl)c3)cnn2)C1 [Example 62, (R)—N-(5-(3-Chlorophenyl)pyridazin-3-yl)-4-cyanomorpholine-2-carboxamide] | 6.00 to 7.00
N#CN1CCCC(F)(C(=O)Nc2cc(-c3ccccc3)on2)C1 (stereo not shown) [Example 45, 1-Cyano-3-fluoro-N-(5-phenylisoxazol-3-yl)piperidine-3-carboxamide] | 6.00 to 7.00
N#CN1CCO[C@@H](C(=O)Nc2cc(-c3cccc4[nH]ncc34)ncn2)C1 [Example 30, (R)-N-(6-(1H-indazol-4-yl)pyrimidin-4-yl)-4-cyanomorpholine-2-carboxamide] | 5.00 to 6.00
N#CN1CCCC(C(=O)Nc2cc(-c3ccccc3)[nH]n2)C1 (stereo not shown) [Example 38, 1-Cyano-N-(5-phenyl-1H-pyrazol-3-yl)piperidine-3-carboxamide] | 5.00 to 6.00
N#CN1CCOC(C(=O)Nc2nc3ccc(-c4cn[nH]c4)cc3s2)C1 (stereo not shown) [Example 7, N-(6-(1H-Pyrazol-4-yl)benzo[d]thiazol-2-yl)-4-cyanomorpholine-2-carboxamide] | 6.00 to 7.00
N#CN1CCO[C@H](C(=O)Nc2cc(-c3ccccc3)ccn2)C1 [Example 35, (S)-4-Cyano-N-(4-phenylpyridin-2-yl)morpholine-2-carboxamide] | 5.00 to 6.00
N#Cc1cccc(-c2cc(NC(=O)C3(F)CCCN(C#N)C3)on2)c1 (stereo not shown) [Example 73, 1-Cyano-N-(3-(3-cyanophenyl)isoxazol-5-yl)-3-fluoropiperidine-3-carboxamide] | 6.00 to 7.00
N#CN1CCC[C@](F)(C(=O)Nc2cn(-c3cccc(C(F)(F)F)c3)cn2)C1 (stereo in doubt) [Example 80, 1-Cyano-3-fluoro-N-(1-(3-(trifluoromethyl)phenyl)-1H-imidazol-4-yl)piperidine-3-carboxamide] | 6.00 to 7.00
N#Cc1cccc(-n2cnc(NC(=O)[C@@]3(F)CCCN(C#N)C3)c2)c1 [Example 79, (R)-1-Cyano-N-(1-(3-cyanophenyl)-1H-imidazol-4-yl)-3-fluoropiperidine-3-carboxamide] | 6.00 to 7.00
N#CN1CCO[C@@H](C(=O)Nc2cc(-c3cccc(C(F)(F)F)c3)no2)C1 [Example 51, (R)-4-Cyano-N-(3-(3-(trifluoromethyl)phenyl)isoxazol-5-yl)morpholine-2-carboxamide] | 6.00 to 7.00

Compound | pIC50
N#CN1CCC[C@](F)(C(=O)Nc2cc(-c3cccc(Cl)c3)no2)C1 [Example 76, (R)—N-(3-(3-Chlorophenyl)isoxazol-5-yl)-1-cyano-3-fluoropiperidine-3-carboxamide] | > 7.00
N#CN1CCCC(C(=O)Nc2cc(-c3ccccc3)ccn2)C1 (stereo not shown) [Example 40, 1-Cyano-N-(4-phenylpyridin-2-yl)piperidine-3-carboxamide] | 5.00 to 6.00
Cn1cc(-c2ccc(NC(=O)C3CN(C#N)CCO3)cc2)cn1 (stereo not shown) [Example 5, 4-Cyano-N-(4-(1-methyl-1H-pyrazol-4-yl)phenyl)morpholine-2-carboxamide] | 5.00 to 6.00
CN1CCN(C#N)C[C@@H]1C(=O)Nc1ncc(-c2ccccc2)s1 [Example 68] | 5.00 to 6.00
CS(=O)(=O)N1CCN(C#N)CC1C(=O)Nc1ncc(-c2ccccc2)s1 (stereo not shown) [Example 71, 4-Cyano-1-(methylsulfonyl)-N-(5-phenylthiazol-2-yl)piperazine-2-carboxamide] | 5.00 to 6.00
N#Cc1cccc(-n2cnc(NC(=O)[C@@]3(F)CCCN(C#N)C3)n2)c1 [Example 83, (R)-1-Cyano-N-(1-(3-cyanophenyl)-1H-1,2,4-triazol-3-yl)-3-fluoropiperidine-3-carboxamide] | 6.00 to 7.00
N#CN1CCC[C@](F)(C(=O)Nc2ccc(-c3ccn[nH]3)cn2)C1 [Example 72, (R)—N-(5-(1H-Pyrazol-5-yl)pyridin-2-yl)-1-cyano-3-fluoropiperidine-3-carboxamide] | 6.00 to 7.00
N#Cc1cccc(-c2ccnc(NC(=O)[C@H]3CCCN(C#N)C3)c2)c1 [Example 57, (S)-1-Cyano-N-(4-(3-cyanophenyl)pyridin-2-yl)piperidine-3-carboxamide] | 5.00 to 6.00
N#CN1CCC[C@](F)(C(=O)Nc2ncc(-c3cccc4cn[nH]c34)cn2)C1 [Example 92, (R)—N-(5-(1H-Indazol-7-yl)pyrimidin-2-yl)-1-cyano-3-fluoropiperidine-3-carboxamide] | > 7.00
N#CN1CCC[C@](F)(C(=O)Nc2cnc(-c3cccc4cn[nH]c34)cn2)C1 [Example 86, (R)—N-(5-(1H-Indazol-7-yl)pyrazin-2-yl)-1-cyano-3-fluoropiperidine-3-carboxamide] | > 7.00
N#Cc1cc(-c2ccnc(NC(=O)C3CN(C#N)CCO3)c2)ccn1 (stereo not shown) [Example 18, 4-Cyano-N-(2′-cyano-[4,4′-bipyridin]-2-yl)morpholine-2-carboxamide] | 6.00 to 7.00
N#CN1CCOC(C(=O)Nc2cc(-c3ccccc3)on2)C1 (stereo not shown) [Example 13, 4-Cyano-N-(5-phenylisoxazol-3-yl)morpholine-2-carboxamide] | 5.00 to 6.00
N#CN1CCC[C@](F)(C(=O)Nc2ccc(-n3cccn3)cn2)C1 [Example 77, (R)—N-(5-(1H-Pyrazol-1-yl)pyridin-2-yl)-1-cyano-3-fluoropiperidine-3-carboxamide] | 6.00 to 7.00
N#Cc1ccnc(N2CCC(NC(=O)[C@H]3CN(C#N)CCO3)C2)c1 (stereo partly drawn) [Example 66, (2R)-4-Cyano-N-(1-(4-cyanopyridin-2-yl)pyrrolidin-3-yl)morpholine-2-carboxamide] | 5.00 to 6.00
N#CN1CCC[C@](F)(C(=O)Nc2ccc(-c3cccc4cn[nH]c34)cn2)C1 [Example 84, (R)—N-(5-(1H-Indazol-7-yl)pyridin-2-yl)-1-cyano-3-fluoropiperidine-3-carboxamide] | > 7.00
N#Cc1ccc(-c2cc(NC(=O)[C@H]3CN(C#N)CCO3)ncn2)cc1 [Example 25, (R)-4-Cyano-N-(6-(4-cyanophenyl)pyrimidin-4-yl)morpholine-2-carboxamide] | 5.00 to 6.00
CCCOc1cc(NC(=O)C2CCCN(C#N)C2)ccc1-c1ccn[nH]1 (stereo not shown) [Example 36, 1-Cyano-N-(3-propoxy-4-(1H-pyrazol-5-yl)phenyl)piperidine-3-carboxamide] | 6.00 to 7.00
N#Cc1cccc(-c2cc(NC(=O)C3(F)CCCN(C#N)C3)no2)c1 (stereo not shown) [Example 64, 1-Cyano-N-(5-(3-cyanophenyl)isoxazol-3-yl)-3-fluoropiperidine-3-carboxamide] | 6.00 to 7.00
N#Cc1cccc(-n2cc(NC(=O)[C@@]3(F)CCCN(C#N)C3)nn2)c1 [Example 82, (R)-1-Cyano-N-(1-(3-cyanophenyl)-1H-1,2,3-triazol-4-yl)-3-fluoropiperidine-3-carboxamide] | 6.00 to 7.00
N#CN1CCOC(C(=O)Nc2ccc(-c3ccccc3)nc2)C1 (stereo not shown) [Example 17, 4-Cyano-N-(6-phenylpyridin-3-yl)morpholine-2-carboxamide] | 5.00 to 6.00
N#CN1CCO[C@@H](C(=O)Nc2cc(-c3ccc(Cl)cc3)ncn2)C1 [Example 26, (R)-N-(6-(4-Chlorophenyl)-pyrimidin-4-yl)-4-cyanomorpholine-2-carboxamide] | 6.00 to 7.00
